Assays:
[1] = test system: C. albicans group I intron precursor; assay: Inhibition of C. albicans group I intron precursor self-splicing; assay type: biochemical, Candida albicans; conditions: read-out: IC50 for inhibition of precursor self-splicing; 2 mM Mg2+ (H2Mg buffer: 50 mM Na HEPES pH 7.5, 135 mM KCl), 1 mM nucleotide bulk yeast tRNA competitor, 100 µM GMP; four parameter logistic fit
Solubility in water = assay type: physicochemical

IC50 [1] | Compound | solubility in water (Solubility in water)
> 5000 µM | c1ccc(Cn2cc(CN(Cc3cn(Cc4ccccc4)nn3)Cc3cn(Cc4ccccc4)nn3)nn2)cc1 [TBTA, tris(benzyltriazolylmethyl)amine] | –
200 ± 35 µM | N=C(N)c1ccc(OCCCCCOc2ccc(C(=N)N)cc2)cc1 [Pentamidine, pentamidine] | –
– | NCCc1c[nH]c2ccccc12 [Compound 4, tryptamine] | not soluble in water

From article PMC2777746 (ACS chemical biology, 2009)
